Assay results: patent publication US20220202811A1, “TREATMENT FOR RETINOIC ACID RECEPTOR-RELATED ORPHAN RECEPTOR Ɣ (RORƔ)-DEPENDENT CANCERS” (The Regents of the University of California, priority 2019, published 2022)

Key:
[1] = system: KP^f/fC cells; assay: pancreatic tumorsphere formation assay; format: cell-based, mouse; details: SR2211 vs vehicle
Protocol: Pancreatic tumorsphere formation assays were performed and modified from (Rovira et al., 2010). Briefly, low-passage (<6 passages) WT or REM2-KP^f/fC cell lines were infected with lentiviral particles containing shRNAs; positively infected (red) cells were sorted 72 hours after transduction. 100-300 infected cells were suspended in tumorsphere media: 100 μl DMEM F-12 (Gibco, Life Technologies) containing 1× B-27 supplement (Gibco, Life Technologies), 3% FBS, 100 μM B-mercaptoethanol (Gibco, Life Technologies), 1× non-essential amino acids (Gibco, Life Technologies), 1× N2 supplement (Gibco, Life Technologies), 20 ng/ml EGF (Gibco, Life Technologies), 20 ng/ml bFGF2 (Gibco, Life Technologies), and 10 ng/ml ESGRO mLIF (Thermo Fisher). Cells in media were plated in 96-well ultra-low adhesion culture plates (Costar) and incubated at 37° C. for 7 days. KP^f/fC in vitro tumorsphere formation studies were conducted at a minimum of n=3 independent wells per cell line across two independent shRNA of n=3 wells; however, the majority of these experiments were additionally completed in >1 independently-derived cell lines n=3, at n=3 wells per shRNA.

[2] = system: organoids derived from adenosquamous tumors; assay: adenosquamous tumor organoids (Msi2-Cre^ER/LSL-Myc); format: cell-based, mouse
From the text: A new Msi2-Cre^ER mouse model of aggressive pancreatic cancer was created, in which Cre is driven off of the Msi2 promoter and can be conditionally triggered by tamoxifen delivery. This Msi2-Cre^ER driver can be crossed into mice bearing distinct mutations such as Ras (leading to myeloproliferative neoplasia), p53, or Myc. When the Msi2-Cre^ER driver was crossed into an LSL-MyC^T58A model developed by Dr. Robert Wechsler-Reya at SBP/Rady, La Jolla, Calif. (Mollaoglu et al., 2017) (FIG. 79), it produced multiple cancer types including small cell lung cancer, choroid plexus tumors, and early stage kidney tumors.

With `OC(c1ccc(-c2ccc(CN3CCN(Cc4ccncc4)CC3)cc2)c(F)c1)(C(F)(F)F)C(F)(F)F` [SR2211] the sphere formation [1] was “decreased” and the sensitivity of organoids [2] was “sensitive”.
